In patent publication US20250281453A1, “COMBINATION THERAPIES COMPRISING QTX125” (QUIMATRYX, S.L., priority 2022, published 2025):
pEC50: −log10 of the molar value.

Legend:
[1] = tested on: SK-OV-3 ovarian cancer cells; experiment: QTX125-containing combination therapy, hexosaminidase cell viability; assay type: cell-based; conditions: for pEC50: Homo sapiens, SK-OV-3, SK-Ov-3; for combination index (C.I): SK-Ov-3
Experimental: (§1) To assess the oncolytic efficacy of QTX125-containing combination therapies in vitro, colonic, pancreatic, hepatic and ovarian tumour cells were administered sorafenib, gemcitabine or bortezomib at EC25, EC50 and EC75 doses. QTX125 was co-administered in order to produce a dose response curve.
(§2) To prepare cells for viability assays, cells were transferred into 96 well tissue culture plates (Cultek), and resuspended in 100 µL at the following densities: 10,000 cells/well (Hep-G2 and MiaPaCa-2), 5000 cells/well (Panc-1 and SK-OV-3) or 3000 cells/well (HCT-116). Following 24 hours of incubation, media was removed and replaced with 100 µL media spiked with QTX125 and the test chemotherapeutic agents. Stock solutions for the agents used in this study are shown below in Table 1. Cells were incubated for a further 72 hours before cell viability was assessed using both ALAMAR® and hexosaminidase assays.
(§3) For the hexosaminidase assay, media containing QTX125 and the test chemotherapeutic agents was removed, and cells were washed once with PBS. 60 μL of substrate solution (containing: 7.5 mM p-nitrophenol-N-acetyl-beta-D-glucosamide [Sigma N-9376], 0.1 M sodium citrate, pH 5.0 and 0.25% Triton X-100) was added to each well and cells were incubated at 37° C. for at least 1 hour. Incubating cells in this manner causes the substrate solution to become bright yellow, at which point 90 μL of developer solution (containing 50 mM Glycine pH 10.4 and 5 mM EDTA) was added to each well. Absorbance at 410 nm was recorded using a plate reader.
(§4) Control values were normalised to 100% and percentage (%) viability was calculated. Data were used to plot log dose-response curves using a sigmoid dose-response (variable slope) equation. EC50 values were obtained using Equation 1, where ‘X’ is the logarithmic concentration; ‘Y’ is the response output and it is assumed that Y starts at bottom of the graph and reaches the top with an overall sigmoid shape.
(§5) Cls were obtained using Equation 2, where (Dm) 1 is the ECx concentration of QTX125 and (D) 1 is the ECx concentration of QTX125 in the presence of sorafenib, gemcitabine or bortezomib.
(§6) In order to assess the oncolytic efficacy of QTX125-containing combination therapies, monotherapy EC25, EC50 and EC75 doses for sorafenib, gemcitabine and bortezomib were calculated (as per Experiment 3) and administered to wells at these fixed concentrations. QTX125 was co-administered at a range of concentrations, in order to plot a dose-response curve such that the EC50 dose of QTX125 could be calculated in the presence of sorafenib/gemcitabine/bortezomib. QTX125 was administered to cells at a starting high-dose, and a 1:1 dilution was completed thereafter. In this part of the study, only the hexosaminidase assay was employed to assess cell viability following treatment with QTX125-containing combination therapies.
(§7) It should be noted that it was not possible to determine the appropriate concentrations for gemcitabine in all cell lines tested. In cells resistant to gemcitabine, nominal concentrations were used in place of EC25, EC50 and EC75 doses (e.g., nominal doses of 1, 10 and 100 µM were used in Panc-1 and Hep-G2 cells).

[2] = tested on: MiaPaCa-2 pancreatic cancer cells; experiment: as above; assay type: cell-based; conditions: for pEC50: Homo sapiens, MIA PaCa-2, MiaPaCa-2; for combination index (C.I.): MiaPaCa-2
Experimental: as §1, §2, §3, §4, §5, §6, §7

[3] = tested on: Hep-G2 hepatic cancer cells; experiment: as above; assay type: cell-based; conditions: for combination index (C.I): Hep-G2; for pEC50: Homo sapiens, HepG2, Hep-G2
Experimental: as §1, §2, §3, §4, §5, §6, §7

[4] = tested on: Panc-1 pancreatic cancer cells; experiment: as above; assay type: cell-based; conditions: for pEC50: Homo sapiens, PANC-1, Panc-1; for combination index (C.I): Panc-1
Experimental: as §1, §2, §3, §4, §5, §6, §7

[5] = tested on: mantle cell lymphoma, lung cancer and pancreatic cancer xenografts; conditions: lung cancer and pancreatic cancer xenograft murine models; cited from earlier work
[6] = + bortezomib at EC25 dose (0.006 μM)
[7] = + bortezomib at EC50 dose (0.007 μM)
[8] = + bortezomib at EC75 dose (0.012 μM)
[9] = + gemcitabine at EC25 dose (0.1 μM)
[10] = + gemcitabine at EC50 dose (0.25 μM)
[11] = + gemcitabine at EC75 dose (0.5 μM)
[12] = + sorafenib at EC25 dose (9.1 μM)
[13] = + sorafenib at EC50 dose (12.7 μM)
[14] = + sorafenib at EC75 dose (21.6 μM)
[15] = + bortezomib at EC25 dose (0.007 μM)
[16] = + bortezomib at EC50 dose (0.009 μM)
[17] = + bortezomib at EC75 dose (0.014 μM)
[18] = + gemcitabine at EC25 dose (0.01 μM)
[19] = + gemcitabine at EC50 dose (0.1 μM)
[20] = + gemcitabine at EC75 dose (1 μM)
[21] = + sorafenib at EC25 dose (4.2 μM)
[22] = + sorafenib at EC50 dose (6.8 μM)
[23] = + sorafenib at EC75 dose (10.3 μM)
[24] = + bortezomib at EC25 dose (0.014 μM)
[25] = + bortezomib at EC50 dose (0.016 μM)
[26] = + bortezomib at EC75 dose (0.026 μM)
[27] = + gemcitabine at EC25, nominal dose 1 μM
[28] = + gemcitabine at EC50, nominal dose 10 μM
[29] = + gemcitabine at EC75, nominal dose 100 μM
[30] = + sorafenib at EC25 dose (0.9 μM)
[31] = + sorafenib at EC50 dose (2.5 μM)
[32] = + sorafenib at EC75 dose (6.4 μM)
[33] = + bortezomib at EC75 dose (0.015 μM)
[34] = + sorafenib at EC25 dose (4.1 μM)
[35] = + sorafenib at EC50 dose (7.4 μM)
[36] = + sorafenib at EC75 dose (15 μM)

O=C(NO)c1ccc(CNC(=O)c2[nH]c(-c3ccc(O)cc3)cc2-c2ccoc2)cc1 [QTX125, 3-(3-Furyl)-N-{4-[(hydroxyamino)carbonyl]benzyl}-5-(4-hydroxyphenyl)-1 Hpyrrole-2-carboxamide]
pEC50 [1, 6]: 6.27 | pEC50 [1, 7]: 6.24 | pEC50 [1, 8]: 6.58 | pEC50 [1, 9]: 6.77 | pEC50 [1, 10]: 6.52 | pEC50 [1, 11]: 6.86 | pEC50 [1, 12]: 6.41 | pEC50 [1, 13]: 6.18 | pEC50 [1, 14]: 6.39 | pEC50 ([1]; no second agent (control of Table 5.4.1)): 6.21 | pEC50 ([1]; no second agent (control of Table 5.4.2)): 6.55 | pEC50 ([1]; no second agent (control of Table 5.4.3)): 6.20 | combination index (C.I) [1, 6]: 0.8 arbitrary units | combination index (C.I) [1, 7]: 0.9 arbitrary units | combination index (C.I) [1, 8]: 0.4 arbitrary units | combination index (C.I) [1, 9]: 0.6 arbitrary units | combination index (C.I) [1, 10]: 1.1 arbitrary units | combination index (C.I) [1, 11]: 0.5 arbitrary units | combination index (C.I) [1, 12]: 0.6 arbitrary units | combination index (C.I) [1, 13]: 1.1 arbitrary units | combination index (C.I) [1, 14]: 0.7 arbitrary units | pEC50 [2, 15]: 6.62 | pEC50 [2, 16]: 6.62 | pEC50 [2, 17]: 6.61 | pEC50 [2, 18]: 6.88 | pEC50 [2, 19]: 6.95 | pEC50 [2, 20]: 7.34 | pEC50 [2, 21]: 6.59 | pEC50 [2, 22]: 6.55 | pEC50 [2, 23]: 6.59 | pEC50 ([2]; no second agent (control of Table 5.2.1)): 6.67 | pEC50 ([2]; no second agent (control of Table 5.2.2)): 6.84 | pEC50 ([2]; no second agent (control of Table 5.2.3)): 6.64 | combination index (C.I.) [2, 15]: 1.0 arbitrary units | combination index (C.I.) [2, 16]: 1.0 arbitrary units | combination index (C.I.) [2, 17]: 1.1 arbitrary units | combination index (C.I.) [2, 18]: 0.9 arbitrary units | combination index (C.I.) [2, 19]: 0.8 arbitrary units | combination index (C.I.) [2, 20]: 0.3 arbitrary units | combination index (C.I.) [2, 21]: 1.2 arbitrary units | combination index (C.I.) [2, 22]: 1.3 arbitrary units | combination index (C.I.) [2, 23]: 1.2 arbitrary units | combination index (C.I) [3, 24]: 0.4 arbitrary units | combination index (C.I) [3, 25]: 0.2 arbitrary units | combination index (C.I) [3, 26]: 0.2 arbitrary units | combination index (C.I) [3, 27]: 0.6 arbitrary units | combination index (C.I) [3, 28]: 0.2 arbitrary units | combination index (C.I) [3, 29]: 0.05 arbitrary units | combination index (C.I) [3, 30]: 0.5 arbitrary units | combination index (C.I) [3, 31]: 0.4 arbitrary units | combination index (C.I) [3, 32]: 0.5 arbitrary units | pEC50 [3, 24]: 6.63 | pEC50 [3, 25]: 6.89 | pEC50 [3, 26]: 7.04 | pEC50 [3, 27]: 6.13 | pEC50 [3, 28]: 6.70 | pEC50 [3, 29]: 7.25 | pEC50 [3, 30]: 7.06 | pEC50 [3, 31]: 7.13 | pEC50 [3, 32]: 7.06 | pEC50 ([3]; no second agent (control of Table 5.3.1)): 6.72 | pEC50 ([3]; no second agent (control of Table 5.3.2)): 5.92 | pEC50 ([3]; no second agent (control of Table 5.3.3)): 6.26 | pEC50 [4, 15]: 5.30 | pEC50 [4, 16]: 5.26 | pEC50 [4, 33]: 5.84 | pEC50 [4, 27]: 5.39 | pEC50 [4, 28]: 5.61 | pEC50 [4, 29]: 5.71 | pEC50 [4, 34]: 4.86 | pEC50 [4, 35]: 4.85 | pEC50 [4, 36]: 5.53 | pEC50 ([4]; no second agent (control of Table 5.5.1)): 4.99 | pEC50 ([4]; no second agent (control of Table 5.5.2)): 4.83 | pEC50 ([4]; no second agent (control of Table 5.5.3)): 4.74 | combination index (C.I) [4, 15]: 0.3 arbitrary units | combination index (C.I) [4, 16]: 0.3 arbitrary units | combination index (C.I) [4, 33]: 0.1 arbitrary units | combination index (C.I) [4, 27]: 0.3 arbitrary units | combination index (C.I) [4, 28]: 0.2 arbitrary units | combination index (C.I) [4, 29]: 0.1 arbitrary units | combination index (C.I) [4, 34]: 1.3 arbitrary units | combination index (C.I) [4, 35]: 1.4 arbitrary units | combination index (C.I) [4, 36]: 0.3 arbitrary units | antitumoral efficacy [5]: high antitumoral efficacy
